Laboratory results from patent US11739054B2 (priority 2017, dated 2023).

Legend:
Swiss Webster mice [1] = settings: mouse, in vivo, sc
Swiss Webster mice [2] = assay: METH-induced locomotor activity assay in vaccinated mice; assay type: in vivo; settings: Example 4; vaccinated mice challenged with METH
Procedure: On day 42, vaccinated mice were assessed in a locomotion assay by acclimating them for 1 h in a plastic cage (10.5 in.×19 in.×8 in.) with clear ventilated acrylic top. Mice were then quickly removed and injected with saline or 0.5, 1, 2, or 4 mg/kg METH before being returned to their cages; cages were wiped down with dry paper towels to remove excess debris while mice were being injected. The mice were then returned to the cage to be recorded and tracked by overhead camera using ANY-Maze video tracking software (Stoelting Co., Wood Dale, Ill.). Sessions were run during the middle of the dark cycle in a 4.6×4.6 m^2 room with a single 30 W upward-directed light source, and then repeated on mice after a two-day washout period until all mice received all MA doses. Distance traveled (m) and time spent immobile (s; 80% pixel consistency for at least 5 s threshold) were measured and analyzed via Prism 6 software, using a two-way repeated-measures ANOVA with Bonferroni posthoc corrected comparisons. Significance was set at a=0.05 and data is represented as mean±SEM.
The mice were monitored for swelling, redness or formation of granulomas at the injection site. The mice were bled on days 21 and 42. The anti-METH IgG antibody titers were determined by ELISA. On day 45, mice were given a 2 mg/kg dose of METH and their locomotor activity was monitored.

Swiss Webster mice [3] = assay type: in vivo; settings: Example 4; hapten conjugated to TT, 75 μg with 50 μg CpG + 750 μg Alhydrogel/alum, s.c. days 0, 14, 28

## TT: tetanus toxoid scaffold protein
Swiss Webster mice [1]
  immune response: potent immune responses

## CN[C@@H](CCC(=O)NCCCCCCC(=O)O)Cc1ccccc1 [I-66]
Swiss Webster mice [2]
  METH-induced locomotor activity: worked as well as, and possibly better than, MH-6
Swiss Webster mice [3]
  anti-METH antibody titers (ELISA): at least comparable to, and possibly greater than, the MH-6 hapten
